# Experimental data published in patent publication US20260285874A1, “SALT FORM AND CRYSTAL FORM OF THIENOPYRIMIDINE COMPOUND, AND PREPARATION METHOD THEREFOR AND USE THEREOF” (SHANDONG LUYE PHARMACEUTICAL CO., LTD., priority 2023, published 2026).
# Experiments:
# human GnRHR [1] = target: T1, human GnRHR (Homo sapiens, UniProt P30968); experiment: In vitro binding screening ([125I]-[D-Trp6]-LH-RH displacement, Chem-1 cell membrane); design: host or cells: Chem-1 cells (membrane preparation)
# T1 sequence (P30968 1-328): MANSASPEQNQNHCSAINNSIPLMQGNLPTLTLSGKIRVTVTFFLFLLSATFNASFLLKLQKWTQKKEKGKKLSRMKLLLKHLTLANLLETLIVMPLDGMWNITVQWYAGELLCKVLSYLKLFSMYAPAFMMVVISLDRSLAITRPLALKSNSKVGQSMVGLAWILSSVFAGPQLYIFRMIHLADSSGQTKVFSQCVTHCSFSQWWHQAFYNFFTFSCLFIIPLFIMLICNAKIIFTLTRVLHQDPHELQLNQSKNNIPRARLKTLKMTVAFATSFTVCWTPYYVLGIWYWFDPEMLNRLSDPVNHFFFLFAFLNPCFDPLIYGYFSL
# Experimental: 1 μM [D-Trp6]-LH-RH was used in the non-specific binding assay. The cell membrane was collected by filtration under vacuum and washed before liquid scintillation. The binding IC50 and IC90 of the compound were calculated using Prism.
# Caco-2 cells = experiment: Permeability and transporter substrate evaluation in Caco-2 monolayer; format: in vitro ADME
# Experimental: • Cell: Caco-2 cells • Instruments: water purification instrument, ELGA Lab Wate; biosafety cabinet, NUAIRE; thermostatic CO2 incubator, Thermo; microplate reader, PerkinElmer; LC-MS/MS, AB SCIEX. • Method: A Caco-2 monolayer cell model was used to determine the two-way permeability of the test substance and evaluate whether the test substance was transported via efflux by a transporter. In the experiment, Caco-2 cells were seeded into a 96-well cell culture plate and cultured for 28 consecutive days before a transport assay. The test substance was administered on two sides. After 120 min of incubation, samples of apical end A, basal end B, and the cell lysate were collected, and the content of the test substance in the samples was quantitatively determined using a liquid chromatography-tandem mass spectrometry (LC/MS/MS) method. The apparent permeability coefficients (Papp) in the direction from the apical end to the basal end (A-B) and in the direction from the basal end to the apical end (B-A) and the efflux ratio were calculated based on the concentration of the test substance.
# [2] = target: T2, human hERG potassium channel (Homo sapiens, UniProt Q12809); experiment: hERG test (QPatch automated patch clamp, CHO cells); format: cell-based
# T2 construct: host or cells: CHO
# Experimental: • Cell: CHO cells stably expressing a human hERG potassium channel (WuXi AppTec (Shanghai) Co., Ltd.) • Reagents: physiological solution (PH=7.4): 140 mM NaCl, 4 mM KCl, 2 mM CaCl2), 1 mM MgCl2, 5 mM glucose, 10 mM HEPES, osmolarity: about 298 mOsm; external solution (PH=7.4): 80 mM NaCl, 4 mM KCl, 2 mM CaCl2, 1 mM MgCl2, 5 mM glucose, 60 mM NMDG, 10 mM HEPES, osmolarity: about 289 mOsm; and internal solution (PH=7.4): 10 mM NaCl, 10 mM KCl, 110 mM KF, 10 mM HEPES, EGTA: […], osmolarity: about 280 mOsm. • Equipment: QPatch high-throughput automated patch clamp system, Sophion. • Method: CHO cells stably expressing a human hERG potassium channel were digested with TrypLE and resuspended in the physiological solution for later use. The single-cell high-impedance sealing and whole-cell mode formation processes were automatically completed by Qpatch. The cells were clamped at a voltage of −80 mV, then a voltage of −50 mV was applied for 80 ms to subtract (current) leakage, and a voltage of +20 mV was applied for 4800 ms to open the hERG channel. The voltage was then reduced to −50 mV and maintained for 5000 ms. This process was used for data collection and analysis. Finally, the voltage was returned to the clamping voltage (−80 mV, 1000 ms). This process was repeated every 20,000 ms. […]
# [3] = In vivo pharmacokinetics in SD rats; conditions: intragastric administration group
# Experimental: (§1) • Rats: SD rats, male, 200-250 g • Instruments: water purification instrument, Millipore; electronic balance, METTLER TOLEDO; high-speed benchtop centrifuge, Thermo; water bath thermostatic oscillator, Shanghai Yiheng Technical Co., Ltd.; vortex oscillator, Thermo; LC-MS/MS, AB SCIEX. • Method: Solutions of all compounds were prepared using DMSO and 20% solutol. In the pharmacokinetic experiment, the administration dose for the intravenous group (i.v) was 1 mg/kg, and the administration dose for the intragastric group (i.g) was 12 mg/kg; each group contained 3 rats. Blood was collected from the orbit of the rats before administration (0 h) and at set time points after administration. In the tissue distribution experimental group, the rats were intragastrically dosed at 12 mg/kg. […] in a heparinized EP tube and centrifuged at 13,500 rpm for 10 min to isolate the plasma. The pituitary was homogenized with water in a certain ratio. The plasma and pituitary homogenates were pre-treated and then analyzed by LC-MS/MS to determine the concentrations of the test substances in the plasma and the pituitary. The plasma drug concentration data were processed in a non-compartmental model using WinNonlin™ Version 6.3 (Pharsight, Mountain View, CA) pharmacokinetic software.
# human GnRHR [4] = target: T1, human GnRHR; experiment: In vitro antagonistic activity screening (FLIPR calcium fluorescence, leuprolide acetate stimulation); format: cell-based
# Experimental: • Cell: HEK293 cells stably expressing human GnRHR (WuXi AppTec (Shanghai) Co., Ltd.) • Equipment: 384-well plate, Greiner; Vi-cell XR Cell Viability Analyzer, Beckman Coulter; incubator, Thermo. • Method: HEK293 cells stably expressing human GnRHR were seeded into a 384-well plate at a density of 20,000 cells/well. Fluo-4 Direct™ No-wash Loading Buffer (Invitrogen) was added to each well the next day, and then the plate was put back into an incubator, incubated at 37° C. for 50 min, and then incubated at room temperature for 10 min. […] Fluorescence was measured using a FLIPR Tetra high-throughput real-time fluorescence assay and analysis system. Then 10 μL of Leuprolide acetate was added, and fluorescence was measured. The IC50 and IC90 of the compound were calculated using Prism.
# [5] = Pituitary tissue distribution in SD rats after intragastric administration; format: in vivo; conditions: i.g 12 mg/kg; for Plasma concentration: in ng/mL (unit assumed)
# Experimental: as §1
# T2 sequence (Q12809 whole entry): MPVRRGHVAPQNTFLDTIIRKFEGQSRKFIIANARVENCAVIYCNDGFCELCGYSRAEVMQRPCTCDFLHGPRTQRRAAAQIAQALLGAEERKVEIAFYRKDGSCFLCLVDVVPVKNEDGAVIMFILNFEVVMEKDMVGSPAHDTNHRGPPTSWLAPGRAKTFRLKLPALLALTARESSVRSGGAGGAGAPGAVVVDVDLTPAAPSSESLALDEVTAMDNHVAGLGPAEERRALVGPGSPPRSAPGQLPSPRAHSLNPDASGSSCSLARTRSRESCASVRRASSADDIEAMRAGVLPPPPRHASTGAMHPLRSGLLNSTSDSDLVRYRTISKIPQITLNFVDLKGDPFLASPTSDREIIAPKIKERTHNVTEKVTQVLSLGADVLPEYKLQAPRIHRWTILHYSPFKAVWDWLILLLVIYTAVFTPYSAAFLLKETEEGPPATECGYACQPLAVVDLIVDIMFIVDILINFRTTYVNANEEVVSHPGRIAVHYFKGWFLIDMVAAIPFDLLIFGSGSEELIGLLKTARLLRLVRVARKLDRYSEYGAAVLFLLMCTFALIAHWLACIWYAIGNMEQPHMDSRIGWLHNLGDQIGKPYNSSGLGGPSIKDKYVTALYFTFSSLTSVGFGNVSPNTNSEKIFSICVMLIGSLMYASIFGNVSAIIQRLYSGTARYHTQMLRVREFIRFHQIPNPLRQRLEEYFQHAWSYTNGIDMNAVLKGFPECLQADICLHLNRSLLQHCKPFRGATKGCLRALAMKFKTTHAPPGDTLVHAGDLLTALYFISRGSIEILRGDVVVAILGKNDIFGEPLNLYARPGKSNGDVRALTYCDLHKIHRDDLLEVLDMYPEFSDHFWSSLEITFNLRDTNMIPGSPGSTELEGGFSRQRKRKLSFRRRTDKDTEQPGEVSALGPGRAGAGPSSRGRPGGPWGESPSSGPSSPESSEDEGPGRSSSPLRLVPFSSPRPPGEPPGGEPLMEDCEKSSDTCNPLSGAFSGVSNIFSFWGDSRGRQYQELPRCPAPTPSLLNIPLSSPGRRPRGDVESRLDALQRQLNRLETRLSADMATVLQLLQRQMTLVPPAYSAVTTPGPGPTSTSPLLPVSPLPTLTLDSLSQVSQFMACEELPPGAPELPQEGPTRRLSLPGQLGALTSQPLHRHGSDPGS
smiles,measurement,setting,value
CCNC(=O)Nc1ccc(-c2sc3c(c2CN(C)C)c(=O)n(-c2ccc(OC)nn2)c(=O)n3Cc2c(F)cccc2F)cn1 [Formula I],Binding ability to human GnRHR (conclusion),human GnRHR [1],significant binding ability
same,Efflux ratio (conclusion),Caco-2 cells,relatively low efflux ratio
same,Inhibitory activity against the human hERG potassium channel (conclusion),[2],relatively low inhibitory activity
same,Absolute bioavailability relative to Relugolix,[3],3.47 times
same,Inhibitory effect on human GnRHR (conclusion),human GnRHR [4],significant inhibitory effect
same,Pituitary concentration,[5]; 1 h,2250 ± 474
same,Plasma concentration,[5]; 1 h,39.5 ± 14.0
same,Pituitary concentration,[5]; 4 h,1841 ± 636
same,Plasma concentration,[5]; 4 h,22.8 ± 2.5
same,Pituitary concentration,[5]; 12 h,1254 ± 494
same,Plasma concentration,[5]; 12 h,9.70 ± 3.10
